Entries after “also recorded” stand apart in the source; their conditions may differ. Structures can show the parent of a compound that is named as a salt. Where two headings read alike, the source gives them in different places.
What was measured:
[1] = molecular target: T1, α7-5HT3 wt chimeric receptor (Homo sapiens, UniProt P36544, M226I/T225I); assay: fluorescence membrane potential (MP) assay, HEK 293 cells; format: cell-based, human/mouse; settings: dose response curves, MP assay
T1 construct: expressed in transfected cells; host or cells: HEK 293 cells

α7-5HT3 L141F [2] = molecular target: T2, α7-5HT3 L141F (Homo sapiens, UniProt P36544, L141F/M226I/T225I); assay: as above; format: cell-based, human/mouse; settings: for EC50: read-out: EC50-MP, α7 L141F, IPD 5HT3, value (s.e.m.)
T2 construct: expressed in transfected cells; host or cells: HEK 293 cells (ATCC CRL-1573)

α7-5HT3 W77F [3] = molecular target: T3, α7-5HT3 W77F (Homo sapiens, UniProt P36544, M226I/T225I/W77F); assay: whole cell voltage clamp recordings (Iss, Ipeak); format: cell-based, human/mouse
T3 construct: expressed in transfected cells; host or cells: HEK 293 cells (ATCC CRL-1573)

α7-5HT3 W77F [4] = molecular target: T3, α7-5HT3 W77F; assay: fluorescence membrane potential (MP) assay, HEK 293 cells; format: cell-based, human/mouse; settings: α7 W77F, IPD 5HT3; value (s.e.m.); read-out: EC50-MP
α7-5HT3 Q79G Q139M = molecular target: T4, α7-5HT3 Q79G Q139M (Homo sapiens, UniProt P36544, M226I/Q139M/Q79G/T225I); assay: as above; format: cell-based, human/mouse
T4 construct: expressed in transfected cells

non-transduced neurons = assay: excitability of non-transduced cortical neurons; format: cell-based; settings: even at 30 μM
Protocol: (§1) FIG. 9. Synthetic ligand-induced silencing of a cortical neuron transduced by viral gene delivery α7-GlyR L141F mutant chimeric ligand-gated ion channels. Cortical neurons were transduced with adeno-associated virus (AAV) encoding the α7-GlyR L141F mutant chimeric ligand-gated ion channel under the control of the neuron-specific synapsin promoter. A. Excitability of a transfected cortical neuron before, during, and after administration of compound 89S (10 μM). […] The neuron fires normally with <100 pA injected current before and after the compound administration. B. Excitability of a non-transduced neuron is shown for comparison. Non-transduced neurons are not affected by administration of compound 89S, even at a higher concentration (30 μM).
(§2) The synapsin promoter, which restricts gene expression to neuronal cell types, was used to drive expression of α7-GlyR L141F in an adeno-associated virus (AAV) gene delivery vector.

[5] = molecular target: T5, α7-5HT3 HC L141F (R425Q R429D R433A) (Homo sapiens, UniProt P36544, L141F/M226I/T225I); assay: whole cell voltage clamp recordings (Iss, Ipeak); format: cell-based, human/mouse
T5 construct: expressed in transfected cells; host or cells: HEK 293 cells (A14); mouse layer 2/3 cortical neurons (A19)

[6] = molecular target: T6, α7-GlyR L141F Y115F expressed in layer ⅔ cortical neurons (Homo sapiens, UniProt P36544, L141F/Y115F); assay: rheobase of layer ⅔ cortical neurons; format: cell-based
T6 construct: expressed in transfected cells; layer 2/3 cortical neurons (A20)
Description: (§3) FIG. 8. Chimeric α7-GlyR ligand-gated ion channel conducts chloride and greatly reduces excitability of cortical neurons in the presence of the cognate ligand. A. Current trace from voltage clamp recordings in transfected HEK 293 cells showing sustained responses of α7-GlyR and α7-GABA C mutant chimeric receptors to activation by synthetic ligands of the invention. Black line indicates time course of ligand application. […] C. Rheobase, which is the amount of current required to elicit an action potential, is not affected by expression of α7-GlyR L141F Y115F (labeled as condition: PRE). However, rheobase increases 10-fold in the presence of 10 μM compound 89S. There is no change in rheobase in untransfected neurons, even in the presence of 30 μM compound 89S. This reduction of excitability in α7-GlyR L141F Y115F expressing neurons is reversed after washout of the synthetic ligand (labeled as condition: WASH).
(§4) This was measured by the amount of current required to evoke and action potential, also termed rheobase (FIG. 8C). We found no difference in the rheobase of α7-GlyR L141F Y115F expressing neurons and untransfected cells.

α7-5HT3 L141F [7] = molecular target: T2, α7-5HT3 L141F; assay: whole cell voltage clamp recordings (Iss, Ipeak); format: cell-based, human/mouse
α7-GlyR L141F = molecular target: T7, α7-GlyR L141F (Homo sapiens, UniProt P36544, L141F); assay: whole cell voltage clamp recordings (Iss, Ipeak); format: cell-based; settings: IPD GlyR
T7 construct: expressed in transfected cells; host or cells: HEK 293 cells (A15); cortical neurons transduced with AAV, synapsin promoter (A22)

untransfected neurons = assay: rheobase of untransfected cortical neurons; format: cell-based; settings: even at 30 μM
Description: as §3, §4

[8] = molecular target: T8, α7-5HT3 HC L141F expressed in layer ⅔ cortical neurons (Homo sapiens, UniProt P36544, L141F/M226I/T225I); assay: cell attached recording of firing in layer ⅔ cortical neurons; format: cell-based, mouse; settings: 3 μM
T8 construct: expressed in transfected cells; host or cells: HEK 293 cells (A14); mouse layer 2/3 cortical neurons (A19)
Description: FIG. 7. High conductance chimeric cationic ligand-gated ion channel activates layer ⅔ cortical neurons. A. Current trace from voltage clamp recordings in HEK 293 cells transfected with high conductance (HC) α7-5HT3 L141F receptors showing sustained response of the receptor to compound 89S. B. Cell attached extracellular recording of action currents from mouse layer ⅔ cortical neurons transfected with HC α7-5HT3 L141F. In addition to the mutation in the ligand binding domain (e.g., L141F), these receptors contain high conductance inducing mutations in the α7-5HT3 sequence: R425Q R429D R433A in SEQ ID NO: 1.
To develop a neuron activating cation channel, we further modified the α7-5HT3 channel with three previously described mutations that were reported to provide a 100-fold increase in conductance: R425Q R429D R433A.

α7-GlyR L141F Y115F = molecular target: T9, α7-GlyR L141F Y115F (Homo sapiens, UniProt P36544, L141F/Y115F); assay: whole cell voltage clamp recordings (Iss, Ipeak); format: cell-based; settings: IPD GlyR
T9 construct: expressed in transfected cells; layer 2/3 cortical neurons (A20)

α7-GABA C L141F = molecular target: T10, α7-GABA C L141F (Homo sapiens, UniProt P36544, L141F); assay: whole cell voltage clamp recordings (Iss, Ipeak); format: cell-based; settings: IPD GABAC
T10 construct: expressed in transfected cells; host or cells: HEK 293 cells

[9] = molecular target: T11, α7-GlyR L141F in cortical neurons (AAV, synapsin promoter) (Homo sapiens, UniProt P36544, L141F); assay: excitability of AAV-transduced cortical neurons; format: cell-based; settings: 10 μM; current injection up to 500 pA
T11 construct: expressed in transfected cells; host or cells: HEK 293 cells (A15); cortical neurons transduced with AAV, synapsin promoter (A22)
Protocol: as §1, §2

[10] = read-out: EC50-Ipeak, peak current, IPD 5HT3
[11] = read-out: EC50-Iss, steady state current, IPD 5HT3

T3 sequence (P36544 with tags, fused parts or gaps W77F/T225I/M226I): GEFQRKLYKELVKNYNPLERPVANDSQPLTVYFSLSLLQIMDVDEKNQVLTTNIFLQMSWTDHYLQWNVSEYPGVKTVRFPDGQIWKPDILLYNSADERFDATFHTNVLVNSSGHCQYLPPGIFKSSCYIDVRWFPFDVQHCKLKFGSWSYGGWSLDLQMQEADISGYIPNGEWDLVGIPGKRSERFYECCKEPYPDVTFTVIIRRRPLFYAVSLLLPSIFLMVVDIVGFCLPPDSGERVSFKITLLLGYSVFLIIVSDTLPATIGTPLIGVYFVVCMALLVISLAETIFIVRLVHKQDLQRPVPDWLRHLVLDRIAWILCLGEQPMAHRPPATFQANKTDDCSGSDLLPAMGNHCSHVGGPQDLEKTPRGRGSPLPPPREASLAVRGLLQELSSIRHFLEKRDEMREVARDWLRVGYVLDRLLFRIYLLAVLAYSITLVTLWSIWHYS
T2 sequence (P36544 with tags, fused parts or gaps L141F/T225I/M226I): as the sequence (P36544 with tags, fused parts or gaps W77F/T225I/M226I) above, with F55W, L119F counted along it
T6 sequence (P36544 with tags, fused parts or gaps Y115F/L141F): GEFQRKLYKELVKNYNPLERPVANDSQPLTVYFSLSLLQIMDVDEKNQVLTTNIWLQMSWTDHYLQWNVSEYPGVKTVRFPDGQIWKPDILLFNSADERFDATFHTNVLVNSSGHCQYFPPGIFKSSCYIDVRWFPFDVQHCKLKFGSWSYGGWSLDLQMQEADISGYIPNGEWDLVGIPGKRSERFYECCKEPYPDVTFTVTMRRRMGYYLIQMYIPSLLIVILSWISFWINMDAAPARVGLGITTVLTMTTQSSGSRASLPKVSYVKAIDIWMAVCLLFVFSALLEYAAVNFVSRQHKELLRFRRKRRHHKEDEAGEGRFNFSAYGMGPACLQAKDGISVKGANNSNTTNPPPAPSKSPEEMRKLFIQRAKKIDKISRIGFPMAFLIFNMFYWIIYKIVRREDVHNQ
T1 sequence (P36544 with tags, fused parts or gaps T225I/M226I): as the sequence (P36544 with tags, fused parts or gaps W77F/T225I/M226I) above, with F55W counted along it
T9 sequence (P36544 with tags, fused parts or gaps Y115F/L141F): as the sequence (P36544 with tags, fused parts or gaps Y115F/L141F) above
T5 sequence (P36544 with tags, fused parts or gaps L141F/T225I/M226I): as the sequence (P36544 with tags, fused parts or gaps W77F/T225I/M226I) above, with F55W, L119F, R403Q, R407D, R411A counted along it
T11 sequence (P36544 with tags, fused parts or gaps L141F): as the sequence (P36544 with tags, fused parts or gaps Y115F/L141F) above, with F93Y counted along it
T7 sequence (P36544 with tags, fused parts or gaps L141F): as the sequence (P36544 with tags, fused parts or gaps Y115F/L141F) above, with F93Y counted along it
T4 sequence (P36544 with tags, fused parts or gaps Q79G/Q139M/T225I/M226I): as the sequence (P36544 with tags, fused parts or gaps W77F/T225I/M226I) above, with F55W, Q57G, Q117M counted along it
T10 sequence (P36544 with tags, fused parts or gaps L141F): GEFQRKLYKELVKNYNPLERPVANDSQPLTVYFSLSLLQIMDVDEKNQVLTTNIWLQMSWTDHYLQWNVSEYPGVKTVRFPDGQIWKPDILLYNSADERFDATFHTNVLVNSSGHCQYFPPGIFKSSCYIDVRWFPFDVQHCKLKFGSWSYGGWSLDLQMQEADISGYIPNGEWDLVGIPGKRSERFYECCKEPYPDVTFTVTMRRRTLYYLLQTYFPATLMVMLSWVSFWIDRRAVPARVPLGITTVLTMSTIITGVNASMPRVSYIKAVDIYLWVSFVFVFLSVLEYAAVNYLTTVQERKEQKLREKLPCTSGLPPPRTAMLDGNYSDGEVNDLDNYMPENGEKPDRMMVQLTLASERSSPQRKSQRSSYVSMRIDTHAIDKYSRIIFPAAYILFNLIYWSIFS
T8 sequence (P36544 with tags, fused parts or gaps L141F/T225I/M226I): as the sequence (P36544 with tags, fused parts or gaps W77F/T225I/M226I) above, with F55W, L119F, R403Q, R407D, R411A counted along it

SMILES: COc1ccccc1C(=O)N[C@@H]1CN2CCC1CC2 [Compound 19S, (S)-2-methoxy-N-(quinuclidin-3-yl)benzamide]
- activity against α7-5HT3 wt (unmodified) receptor [1]: did not induce activate
- EC50 (α7-5HT3 L141F [2]): 1400 nM

SMILES: O=C(N[C@@H]1CN2CCC1CC2)c1ccc(-c2ccccc2)cc1 [Compound 28S, (S)—N-(quinuclidin-3-yl)biphenyl-4-carboxamide TFA]
- activity against α7-5HT3 wt (unmodified) receptor [1]: did not induce activate
- EC50 (α7-5HT3 W77F [3]; [10]): 11300 nM
- EC50 (α7-5HT3 W77F [3]; [11]): 2400 nM

SMILES: O=C(N[C@@H]1CN2CCC1CC2)c1ccc(-c2cccs2)cc1 [Compound 34S, (S)—N-(quinuclidin-3-yl)-4-(thiophen-2-yl)benzamide]
- EC50 (α7-5HT3 W77F [4]): 1400 nM
- activity against α7-5HT3 wt (unmodified) receptor [1]: did not induce activate

SMILES: CS(=O)(=O)c1ccc(C(=O)N[C@H]2CN3CCC2CC3)cc1 [Compound 38R, (R)-4-(methylsulfonyl)-N-(quinuclidin-3-yl)benzamide TFA]
- fold improvement in potency (EC50), α7-5HT3 Q79G Q139M relative to α7-5HT3 Q79G (α7-5HT3 Q79G Q139M; EC50MP): 8 fold
- EC50 (α7-5HT3 Q79G Q139M; read-out: EC50-MP, α7 Q79G Q139M, IPD 5HT3, value (s.e.m.)): 230 ± 70 nM
- activity against α7-5HT3 wt (unmodified) receptor ([1]; TFA): no activity; also recorded: did not induce activate

SMILES: COc1ccc(C(=O)N[C@@H]2CN3CCC2CC3)c(OC)c1 [Compound 88S, (S)-2,4-dimethoxy-N-(quinuclidin-3-yl)benzamide]
- activity against α7-5HT3 wt (unmodified) receptor [1]: no activity
- EC50 (α7-5HT3 L141F [2]): 100 ± 100 nM

SMILES: COc1ccc(OC)c(C(=O)N[C@@H]2CN3CCC2CC3)c1 [Compound 89S, (S)-2,5-dimethoxy-N-(quinuclidin-3-yl)benzamide]
- excitability of non-transduced neurons (non-transduced neurons): unaffected; also recorded: not affected
- EC50 ([5]; read-out: EC50-Ipeak, peak current, IPD 5HT3 HC): 2300 nM
- EC50 ([5]; read-out: EC50-Iss, steady state current, IPD 5HT3 HC): 1500 nM
- activity against α7-5HT3 wt (unmodified) receptor [1]: no activity
- increase of rheobase ([6]; 10 μM): 10 fold
- reversibility of the effect on neuronal excitability after washout ([6]; washed away with drug-free buffer): rapidly reversible; also recorded: reversed
- EC50 (α7-5HT3 L141F [7]; [10]): 3200 nM
- EC50 (α7-5HT3 L141F [7]; [11]): 700 nM
- EC50 (α7-GlyR L141F; EC50-Iss, steady state current): 1800 nM
- EC50-Ipeak (α7-GlyR L141F; peak current, *complex: multiphasic dose response): *complex
- change in rheobase in untransfected neurons (untransfected neurons): no change
- selectivity for L141F relative to other mutant receptors (α7-5HT3 L141F [2]; FIG. 5 dose response curves): selective
- EC50 (α7-5HT3 L141F [2]): 400 ± 100 nM
- firing rate of neurons [8]: sustainably increased
- EC50 (α7-GlyR L141F Y115F; EC50-Ipeak, peak current): 6900 nM
- EC50 (α7-GlyR L141F Y115F; EC50-Iss, steady state current): 5200 nM
- EC50 (α7-GABA C L141F; EC50-Ipeak, peak current): 8800 nM
- EC50 (α7-GABA C L141F; EC50-Iss, steady state current): 4900 nM
- excitability (silencing) of transduced neurons [9]: rendered sensitive to silencing; also recorded: poorly excitable
